From US8999384B2, “Immediate release compositions of acid labile drugs” (priority 2010, dated 2015)

Experiment: Acid neutralizing capacity of buffers: buffer added to basal SGF and titrated with excess 0.1N HCl for 1 hour
Format: physicochemical
Details: for initial rise in pH: at the buffer quantity required to neutralize the SGF (quantity stated per buffer); for pH upon addition of excess acid for a period of 1 h: at the buffer quantity required to neutralize the SGF, 0.1N HCl at 0.5 ml/minute; for quantity of buffer required to neutralize the basal SGF: basal SGF: 9.6 ml of 0.1N HCl + 210 ml of water
Method: A number of buffers, both soluble and insoluble, were tested for their acid neutralizing capacity. Based on their acid neutralizing capacity, buffers, both individual and combination, were evaluated for their behavior at the excess secretion of acid. The technique involved consists of adding an excess dose of the buffer to a sample of artificial gastric juice. […] The model was simulated in vitro and the buffer was added to the basal SGF medium containing 9.6 ml of 0.1N HCl+210 ml of water and titrated with excess acid (0.1N HCl) at the rate of 0.5 ml/minute for a period of 1 hour (total volume=250 ml). The buffer(s) which maintained a pH above 6.0 at the excess secretion of acid was selected.

| Structure (SMILES) | initial rise in pH | pH upon addition of excess acid for a period of 1 h | quantity of buffer required to neutralize the basal SGF |
| --- | --- | --- | --- |
| [Mg+2].[O-2] [Heavy Magnesium oxide] | 7 | 7 | About 80 mg |
| NC(CO)(CO)CO [Tromethamine] | 8 | 8 | About 1000 mg |
